Laboratory results published in patent US6479487B1, “6, 9-disubstituted 2-[trans-(4-aminocyclohexyl)amino] purines” (Aventis Pharmaceuticals Inc., priority 1998, dated 2002).
Where “and” joins values, the source holds several entries; their conditions need not be identical. Identical values can stand only once. Counter-ions that a name gives are not always drawn. Like-named read-outs stand apart in the source and are kept apart here.

Legend:
MDA-MB-231 = assay: In vitro tumor cell proliferation, MDA-MB-231; format: cell-based, human; conditions: sulforhodamine B or CyQUANT assay, many values given with an undefined *, read-out: In vitro Tumor Cell Proliferation (IC50, μM) Breast MDA-MB-231
Description: (§1) The proliferation of tumor cells was measured using a sulforhodamine B assay as described in Skehan, P., et al., J. Natl. Cancer Inst. […] Tumor cells were harvested with trypsin-EDTA, cells that excluded trypan blue were counted, added to 96-well plates and incubated overnight at 37° C. Drug was added to the wells following dilution in culture medium. Three days later, the medium was removed and replenished with medium containing fresh drug and incubated an additional 4 days. The cells were then fixed with 0.1 ml 10% trichloroacetic acid for 60 min at 4° C. The plates were rinsed five times with tap water, air-dried and stained for 30 min with 0.4% sulforhodamine B in 1% acetic acid and air-dried.
(§2) Alternatively, the CyQUANT cell proliferation assay was used to quantitate cell proliferation.
(§3) Alternatively, the CyQUANT cell proliferation assay was used to quantify tumor cell proliferation. Tumor cells were harvested with trypsin-EDTA, cells that excluded trypan blue were counted, added to 96-well plates and incubated overnight at 37° C. Drug was added to the wells following dilution in culture medium. Three days later the medium was removed and the plates frozen at −80° C. for at least 30 minutes.
MDA-MB-23 1 is a human breast adenocarcinoma, hormone-independent (HTB 26);

MDA-MB-435 = assay: In vitro tumor cell proliferation, MDA-MB-435; format: cell-based; conditions: values given with an undefined *, read-out: In vitro Tumor Cell Proliferation (IC50, μM) Breast MDA-MB-435
Description: as §1, §2, §3

DMS-114 = assay: In vitro tumor cell proliferation, DMS-114; format: cell-based, human; conditions: many values given with an undefined *, read-out: In vitro Tumor Cell Proliferation (IC50, μM) Lung DMS-114
Description: DMS-1 14: human small cell lung carcinoma;
as §1, §2, §3

cdk2/cyclin E = target: T1, cdk2/cyclin E (Homo sapiens, UniProt P24941); assay: Cyclin-Dependent Kinase 2 Assay (cdk2/cyclin E, GST-Rb substrate); format: biochemical; conditions: recombinant cdk2/cyclin E, 10 μM ATP, 30 min at 30° C., several values in a cell = separate determinations, read-out: CDK-2 Inhibition IC50
T1 construct: made in house; host or cells: insect cells (baculovirus co-infection)
Description: Substrate: GST-Rb as described above for cdk4/cyclin D1
Assay conditions for cdk2/cyclin E were identical to those for cdk4/cyclin D1 including the substrate. The concentration of recombinant cdk2/cyclin E in the assay was 0.1 μg per 100 μl assay. Incubation was for 30 min at 30° C.

cdk4/cyclin D1 = target: T2, cdk4/cyclin D1 (Homo sapiens, UniProt P11802); assay: Cyclin-dependent Kinase 4 Assay (cdk4/cyclin D1, GST-Rb substrate); format: biochemical; conditions: cdk4/cyclin D1 insect cell lysate, 10 μM ATP, 30 min at 37° C., several values = separate determinations, read-out: CDK4 Inhibition IC50
T2 construct: made in house; host or cells: Sf9 insect cells (Bac-to-Bac baculovirus, pFastBac)
T2 sequence (P11802 whole entry): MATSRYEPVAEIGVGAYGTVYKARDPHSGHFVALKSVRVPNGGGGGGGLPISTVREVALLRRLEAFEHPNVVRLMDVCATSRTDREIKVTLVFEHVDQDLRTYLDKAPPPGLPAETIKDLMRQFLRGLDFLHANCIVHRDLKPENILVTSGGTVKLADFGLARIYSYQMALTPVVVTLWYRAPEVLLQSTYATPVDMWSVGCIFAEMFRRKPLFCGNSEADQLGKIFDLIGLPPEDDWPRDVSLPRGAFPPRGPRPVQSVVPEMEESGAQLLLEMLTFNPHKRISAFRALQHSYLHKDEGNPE
T2 sequence (P24385 whole entry partner): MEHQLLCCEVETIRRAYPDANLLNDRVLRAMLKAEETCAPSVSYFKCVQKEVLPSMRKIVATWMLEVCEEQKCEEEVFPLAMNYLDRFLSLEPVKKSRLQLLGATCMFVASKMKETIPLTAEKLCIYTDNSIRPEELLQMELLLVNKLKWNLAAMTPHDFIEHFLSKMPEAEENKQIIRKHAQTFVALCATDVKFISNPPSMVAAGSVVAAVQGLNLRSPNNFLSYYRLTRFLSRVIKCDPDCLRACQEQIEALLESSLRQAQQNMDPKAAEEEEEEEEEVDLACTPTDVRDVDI
Description: The IC50 values for cdk4 inhibition were by the following method:
The transformed bacteria were grown overnight to saturation, then diluted in YT broth and incubated at 37° C. for 2 h. The protein was induced by incubation with 0.1 mM isopropylthioglycoside for 3 h. Following sedimentation by centrifugation, the cells were lysed by sonication in STE buffer ([…] NaCl, 10 mM Tris, pH 8.0, 1 mM EDTA) containing 10% sarkosyl. Particulate matter was removed by centrifugation and the lysate was incubated with glutathione-Sepharose at 4° C. The beads were washed with kinase buffer and then quantitation of Coomassie blue-stained proteins separated by SDS-PAGE was performed using a protein standard of known concentration.
The cDNA for human cyclin D1 was cloned by RT PCR using […] from MCF-7 cells. […] Bacmid DNA was used to transfect Sf9 insect cells to produce recombinant virus. Following plaque purification of the virus, the viral preparations were amplified until high titer stocks were acheived.
Lysates were prepared by lysis of Sf9 cells coinfected with cdk4 and cyclin D1 in 50 mM HEPES, pH 7.5, 10 mM MgCl2, 1 mM DTT, 0.1 mM phenylmethylsulfonyl fluoride, 5 μg/ml aprotinin, and 5 μg/ml leupeptin using a PARR bomb under 500 p.s.i nitrogen pressure for 5 min at 4° C. Insoluble material was sedimented at 10,000×g for 20 min at 4° C. Glycerol was added to the supernatant to 10% and stored at −80° C. in aliquots.
Pre-wet Millipore Multiscreen 96-well filter plates (0.65 μm Durapore filters) with 200 μl kinase buffer (50 mM HEPES, pH 7.5, 10 mM MgCl2, 1 mM EGTA). GST-Rb (0.5 μg) bound to glutathione-Sepharose beads is added in 50 μl per well and the solution removed by application of vacuum. […] Add 0.1 μg cdk4/cyclin D1 (insect cell lysate) to initiate assay. Incubate 30 min at 37° C. Terminate reaction by filtration on Millipore Vacuum Manifold. Wash four times with TNEN (20 mM Tris, pH 8.0, 100 mM Na Cl, 1 mM EDTA, 0.5% nonidet P-40). After drying the plates at room temperature, the filter plates were placed in adapter plates (Packard) and 40 μl of Microscint-O® (Packard) was added to each well. Top Seal A film was used to cover the plates before counting in a Top Count Scintillation Counter.

A549 = assay: In vitro tumor cell proliferation, A549; format: cell-based, human; conditions: many values given with an undefined *, read-out: In vitro Tumor Cell Proliferation (IC50, μM) Lung A549
Description: as §1, §2, §3

Colo-205 = assay: In vitro tumor cell proliferation, Colo-205; format: cell-based; conditions: values given with an undefined *, read-out: In vitro Tumor Cell Proliferation (IC50, μM) Colon Colo-205
Description: as §1, §2, §3

HT-29 = assay: In vitro tumor cell proliferation, HT-29; format: cell-based, human; conditions: many values given with an undefined *, read-out: In vitro Tumor Cell Proliferation (IC50, μM) Colon HT-29
Description: as §1, §2, §3
HT-29 is a human colon adenocarcinoma, moderately well-differentiated grade II (HTB 38);

PC-3 = assay: In vitro tumor cell proliferation, PC-3; format: cell-based, human; conditions: many values given with an undefined *, read-out: In vitro Tumor Cell Proliferation (IC50, μM) Prostate PC-3
Description: as §1, §2, §3

DU145 = assay: In vitro tumor cell proliferation, DU145; format: cell-based, human; conditions: many values given with an undefined *, read-out: In vitro Tumor Cell Proliferation (IC50, μM) Prostate DU145
Description: as §1, §2, §3

[1] = Homo sapiens, MDA-MB-231, MDA-MB-231
[2] = Homo sapiens, MDA-MB-435, MDA-MB-435
[3] = Homo sapiens, COLO 205, Colo-205

Structure (SMILES)	IC50 (MDA-MB-231; [1]) [µM]	IC50 (MDA-MB-435; [2]) [µM]	IC50 (DMS-114; DMS-114, dihydrochloride) [µM]	IC50 (DMS-114; Homo sapiens, DMS-114, DMS-114) [µM]	IC50 (cdk2/cyclin E)	IC50 (cdk4/cyclin D1)	IC50 (A549; Homo sapiens, A549, A549) [µM]	IC50 (Colo-205; Colo-205, dihydrochloride) [µM]	IC50 (Colo-205; [3]) [µM]	IC50 (MDA-MB-231; MDA-MB-231, dihydrochloride) [µM]	IC50 (MDA-MB-435; MDA-MB-435, dihydrochloride) [µM]	IC50 (HT-29; HT-29, dihydrochloride) [µM]	IC50 (HT-29; Homo sapiens, HT-29, HT-29) [µM]	IC50 (PC-3; Homo sapiens, PC-3, PC-3) [µM]	IC50 (PC-3; PC-3, dihydrochloride) [µM]	IC50 (A549; A549, dihydrochloride) [µM]	IC50 (DU145; Homo sapiens, DU-145, DU145) [µM]	further results
COc1ccc(CNc2nc(N[C@H]3CC[C@H](N)CC3)nc3c2ncn3C(C)C)cc1OC [Example 19, 2-[Trans-(4-aminocyclohexyl)amino]-6-[(3.4-dimethoxybenzyl)amino]-9-(2-propyl)purine dihydrochloride]	15	20	15	12	540 nM	20000 nM	22	10	12									
N[C@H]1CC[C@H](Nc2nc(Nc3ccccc3)c3ncn(C4CCCC4)c3n2)CC1 [Example 32, 2-[Trans-(4-aminocyclohexyl)amino]-6-(phenylamino)-9-cyclopentylpurine dihydrochloride]	0.85	1.59	0.51	0.61	54 nM and 25 nM and 27 nM and 14 nM	1300 nM and 1600 nM	0.37	1.2	0.82	0.68	1.39	1.1	1			0.68	0.39	IC50 (DU145; DU145, dihydrochloride): 0.64 µM
N[C@H]1CC[C@H](Nc2nc(NC3CCN(Cc4ccccc4Cl)CC3)c3ncn(C4CCCC4)c3n2)CC1 [Example 43, 2-[Trans-(4-aminocyclohexyl)amino]-6-[4-(1-(2-chlorobenzyl))piperidinylamino]-9-cyclopentylpurine]	0.37	0.33		0.43	150 nM and 200 nM	3900 nM and 7700 nM	0.25		0.28								0.3	IC50 (MDA-MB-231; MDA-MB-231): 0.43 µM; IC50 (MDA-MB-435; MDA-MB-435): 0.57 µM; IC50 (DMS-114; DMS-114): 0.41 µM; IC50 (A549; A549): 0.23 µM; IC50 (DU145; DU145): 0.32 µM; IC50 (Colo-205; Colo-205): 0.23 µM
N[C@H]1CC[C@H](Nc2nc(NC3CCN(CC4CC4)CC3)c3ncn(C4CCCC4)c3n2)CC1 [Example 52, 2-[Trans-(4-aminocyclohexyl)amino]-6-[4-(1-cyclopropylmethyl)piperidinylamino]-9-cyclopentylpurine]	1	2.1			190 nM	740 nM and 1400 nM and 1100 nM	0.57		1.5				1.6	1.7			1.4	IC50 (MDA-MB-231; MDA-MB-231): 1.2 µM; IC50 (MDA-MB-435; MDA-MB-435): 2.4 µM; IC50 (HT-29; HT-29): 2 µM; IC50 (PC-3; PC-3): 2.1 µM; IC50 (A549; A549): 0.68 µM; IC50 (DU145; DU145): 1.5 µM; IC50 (Colo-205; Colo-205): 1.1 µM

Now from value to compound, other results behind:

IC50 (MDA-MB-231; [1]) [µM]	IC50 (MDA-MB-435; [2]) [µM]	IC50 (DMS-114; DMS-114, dihydrochloride) [µM]	IC50 (DMS-114; Homo sapiens, DMS-114, DMS-114) [µM]	IC50 (cdk2/cyclin E)	IC50 (cdk4/cyclin D1)	IC50 (A549; Homo sapiens, A549, A549) [µM]	IC50 (Colo-205; Colo-205, dihydrochloride) [µM]	IC50 (Colo-205; [3]) [µM]	IC50 (MDA-MB-231; MDA-MB-231, dihydrochloride) [µM]	IC50 (MDA-MB-435; MDA-MB-435, dihydrochloride) [µM]	IC50 (HT-29; HT-29, dihydrochloride) [µM]	IC50 (HT-29; Homo sapiens, HT-29, HT-29) [µM]	IC50 (PC-3; Homo sapiens, PC-3, PC-3) [µM]	IC50 (PC-3; PC-3, dihydrochloride) [µM]	IC50 (A549; A549, dihydrochloride) [µM]	IC50 (DU145; Homo sapiens, DU-145, DU145) [µM]	Structure (SMILES)	further results
4.2	10	2.8	2.7	370 nM	400 nM and 1300 nM and 570 nM		5.3	3.9	8.2	11	4.4	4	2.5	2.3			COCCCNc1nc(N[C@H]2CC[C@H](N)CC2)nc2c1ncn2C1CCCC1 [Example 22, 2-[Trans-(4-aminocyclohexyl)amino]-6-(3-methoxypropylamino)-9-cyclopentylpurine dihydrochloride]	
	23	15	17	110 nM	530 nM and 520 nM		15			22	22		15	8	17		N[C@H]1CC[C@H](Nc2nc(NCCOCCO)c3ncn(C4CCCC4)c3n2)CC1 [Example 26, 2-[Trans-(4-aminocyclohexyl)amino]-6-(2-hydroxyethoxyethylamino)-9-cyclopentylpurine dihydrochloride]	
10	9.3		2.1	130 nM	1400 nM	3.1	4.6	4.9	6	7.2	5.2	3.8	2.6	3	1.6		COc1cccc(CCNc2nc(N[C@H]3CC[C@H](N)CC3)nc3c2ncn3C2CCCC2)c1 [Example 27, 2-[Trans-(4-aminocyclohexyl)amino]-6-[2-(3-methoxyphenyl)ethylamino]-9-cyclopentylpurine dihydrochloride]	
